From BigSolDB 2.1

O=C1OC(=O)[C@H]2[C@@H]1[C@@H]1C=C[C@H]2O1
solubility (mole fraction)
Settings | 278.15 K | 283.15 K | 288.15 K | 293.15 K | 298.15 K | 303.15 K | 308.15 K | 313.15 K | 318.15 K | 323.15 K
in 1,4-dioxane | – | – | 0.0221 | 0.0275 | 0.0342 | 0.0421 | 0.052 | 0.0682 | 0.0869 | 0.131
in acetone | 0.0386 | 0.0439 | 0.0477 | 0.0551 | 0.0617 | 0.0703 | 0.0814 | 0.0929 | 0.104 | 0.126
in ethanol | 0.000635 | 0.00076 | 0.00091 | 0.00102 | 0.00124 | 0.00145 | 0.00169 | 0.00202 | 0.00238 | 0.00292
in ethyl acetate | 0.0152 | 0.0165 | 0.02 | 0.0223 | 0.0274 | 0.0309 | 0.0364 | 0.0414 | 0.0475 | 0.0559
in methyl acetate | 0.0225 | 0.028 | 0.0297 | 0.0357 | 0.0416 | 0.0483 | 0.0587 | 0.068 | 0.0805 | 0.0963
